Entries after “also recorded” stand apart in the source; their conditions may differ.
Assays:
[1] = tested on: sciatic nerve crush injury; experiment: sciatic nerve pinch test after sciatic nerve crush injury; format: in vivo, adult male C57BL/6 mice; conditions: for increase of the most distal axonal regrowth (sciatic nerve pinch test): i.p. glycopyrrolate 2 mg/kg or mexiletine 10 mg/kg for 3 consecutive days after injury, 72 hours after crush, n=5-6 per group; for in vivo axon regeneration after sciatic nerve crush injury (pinch test), in words: i.p. glycopyrrolate 2 mg/kg or mexiletine 10 mg/kg, 3 days after injury
Method: (§1) (A) Experimental paradigm for sciatic nerve pinch test. Sciatic nerve crush injury was performed on the left sciatic nerve of adult male C57BL/6 mice. We performed nerve pinch test in adult mice injected intraperitoneally with glycopyrrolate (2 mg/kg) or mexiletine (10 mg/kg) for 3 consecutive days after injury. […] Scale bar: 100 μm. Mean±SEM; *P<0.05, Student's t-test.
(§2) In the current project, a sciatic nerve crush injury was used as an in vivo animal model for peripheral nerve injury. Adult male C57BL/6 mice (8-12 weeks old) were used for all experiments. All mouse husbandry and euthanasia were in compliance with the Institutional Animal Care and Use Committee (IACUC) guidelines. Surgical procedures performed were in accordance with protocols approved by the City University of Hong Kong Animal Research Ethics Sub-Committee and Department of Health, Hong Kong SAR. Under anesthesia, the left sciatic nerve was exposed, and crushed with 5/45 smooth forceps (Fine Science Tools) for 15 seconds at the level of external rotator muscles, distal to the sciatic notch after separation from the surrounding connective tissue (FIG. 2).
(§3) Glycopyrrolate or mexiletine was first dissolved in 0.9% saline, and injected intraperitoneally immediately after sciatic nerve crush injury for 3 consecutive days at 2 mg/kg and 10 mg/kg, respectively (FIGS. 3A and B).
(§4) The extent of axon regeneration was evaluated using sciatic nerve pinch test, and verified by quantifications of GAP-43-positive regenerating axonal fibres 72 hours after sciatic nerve crush injury.
Sciatic nerve pinch test was performed on the ipsilateral nerves 72 hours after sciatic nerve crush injury. The left sciatic nerve was first exposed to mid-thigh level under deep anaesthesia (i.e. 2.5% isoflurane). Under light anaesthesia (i.e. 1% isoflurane), a series of pinches were applied from the most distal part of the nerve (i.e. trifurcation), moving proximally towards the crushed site using smooth forceps (Fine Science Tools). The distance (in mm) representing the extent of axonal regrowth was recorded from the crushed site to the most distal point of the nerve where initial withdrawal response was observed after pinching (FIGS. 4A and C).

[2] = tested on: M1-M3 mAChRs; conditions: background description of the drug; cited from earlier work
[3] = tested on: sciatic nerve crush injury; conditions: 72 hours after crush; for increase in number of GAP43-positive regenerating axons: i.p. glycopyrrolate 2 mg/kg or mexiletine 10 mg/kg for 3 days, 4 mm distal to the crushed site, n=3 per group; for GAP-43-positive regenerating axonal fibres at 4 mm distal to the crushed site, in words: i.p. glycopyrrolate 2 mg/kg or mexiletine 10 mg/kg
Method: as §1, §2, §3, §4

[4] = tested on: axotomized dorsal root ganglion (DRG) neurons; experiment: neurite outgrowth assay in primary cultures of axotomized DRG neurons; format: cell-based, adult C57BL/6 mice; conditions: vs 0.1% DMSO solvent control; for average total neurite length (neurite outgrowth): glycopyrrolate 5, 10 and 100 μM or mexiletine 10, 50 and 100 μM added 1 h after plating, 17 h growth; for cell survival of DRG neurons: same cultures, 17 h
Method: Primary cultures of DRG neurons were prepared from adult C57BL/6 mice, and plated onto a poly-D-lysine and laminin-coated 8-well chamber. Glycopyrrolate and mexiletine were added into the cultured DRG neurons at various concentrations as indicated one hour after plating. 0.1% DMSO served as solvent control. The cultures were allowed to grow for 17 h. After fixation, the DRG neurons were immunostained with anti-βIII-tubulin primary antibodies highlighting the cell bodies of DRG neurons and their adjacent neurites for neurite outgrowth assay. (A) Average total neurite length was quantified using automated WIS-NeuroMath 5 software. […] Scale bar: 500 μm.
In the current study, the intrinsic growth capacity of peripheral neurons was first assessed, which is a critical determinant for successful axon regeneration after injury, after treating the neurons with glycopyrrolate and mexiletine. Primary culture of adult dorsal root ganglion (DRG) neurons is a widely used in vitro models to assess cues that could promote axonal outgrowth. Primary DRG neurons were prepared from adult C57BL/6 mice (8-12 weeks old). DRG neurons were dissected out, mildly digested with a solution of collagenase and dispase II (Roche Diagnostics), trypsinized and mechanically dissociated into single cell suspension using flame-polished Pasteur pipettes with three different diameters. Two thousand DRG neurons were plated onto an 8-well chamber slide pre-coated with poly-D-lysine and laminin (Sigma Aldrich), and cultured in full Neurobasal medium (Gibco) supplemented with B27, 200 mM L-glutamine, penicillin-streptomycin, 50 ng/ml NGF (Gibco), 10 μM Ara-C and 2 ng/ml GDNF (Gibco). Glycopyrrolate (5, 10 and 100 μM) or mexiletine (10, 50 and 100 μM) was added into the cultured neurons 1 hour after plating, and the cultures were allowed to grow for 17 hours.
After 17 hours of incubation, the cultures were fixed with 4% paraformaldehyde (PFA), blocked with 0.5% bovine serum albumin (BSA)/0.1% Triton X-100 in PBS for 1 hour at room temperature, and incubated with anti-β III-tubulin primary antibodies (1:800, Sigma Aldrich) for overnight at 4° C. After washing with PBS, the cultures were incubated with Alexa Fluor 488-conjugated secondary antibodies (1:300, Molecular Probes) for 1 hour at room temperature. To assess the neurite outgrowth of axtomized DRG neurons after treatment of glycopyrrolate or mexiletine, 30 non-overlapping images were taken at 10× magnifications using Nikon Ni-E microscope equipped with a motorized stage. Total neurite length of individual DRG neurons from each treatment condition were measured by automated WIS-NeuroMath software (Weizmann Institute of Science). The total neurite length of the neurons was averaged from at least 250 neurons per condition. […]

Compound: C[N+]1(C)CCC(OC(=O)C(O)(c2ccccc2)C2CCCC2)C1 (stereo not shown) [glycopyrrolate]
- increase of the most distal axonal regrowth (sciatic nerve pinch test) [1]: 61%
- in vivo axon regeneration after sciatic nerve crush injury (pinch test), in words [1]: markedly accelerated in vivo axon regeneration; also recorded: significantly enhanced axon regeneration
- selectivity among mAChR subtypes [2]: no selectivity to M1-M3 mAChRs
- increase in number of GAP43-positive regenerating axons [3]: 73%
- GAP-43-positive regenerating axonal fibres at 4 mm distal to the crushed site, in words [3]: More GAP-43-positive regenerating axonal fiber were observed
- average total neurite length (neurite outgrowth) [4]: induced robust neurite extension; also recorded: induce substantial neurite outgrowth
- cell survival of DRG neurons [4]: did not exhibit any effects on cell survival; also recorded: without exerting any neuronal survival effects

Compound: Cc1cccc(C)c1OCC(C)N (stereo not shown) [mexiletine]
- increase of the most distal axonal regrowth (sciatic nerve pinch test) [1]: 59%
- in vivo axon regeneration after sciatic nerve crush injury (pinch test), in words [1]: markedly accelerated in vivo axon regeneration; also recorded: significantly enhanced axon regeneration
- increase in number of GAP43-positive regenerating axons [3]: 67%
- GAP-43-positive regenerating axonal fibres at 4 mm distal to the crushed site, in words [3]: More GAP-43-positive regenerating axonal fiber were observed
- average total neurite length (neurite outgrowth) [4]: induced robust neurite extension; also recorded: induce substantial neurite outgrowth
- cell survival of DRG neurons [4]: did not exhibit any effects on cell survival; also recorded: without exerting any neuronal survival effects
